What was measured:
JAK1 = assay: Western blot of JAK1 phosphorylation in airway epithelial monolayer; format: cell-based, human
Method: FIG. 7. AR inhibition prevents IL-13-induced phosphorylation of JAK-1, ERK1/2 and STAT-6 in airway epithelial monolayer. The ciliated monolayer of airway cells at ALI was treated with AR inhibitor for 24 h and stimulated with IL-13 for different time periods as indicated. At the end of incubation, cells were lysed and cell lysate was subjected to western blotting using antibodies against phosphorylated and nonphosphorylated JAK-1, ERK1/2 and STAT-6 to analyze the activation of these signaling proteins. A representative blot is shown (n=4). #p<0.001 vs Control; *p<0.01 and **p<0.001 vs IL-13. For air-liquid interface (ALI) culture, SAEC were seeded at 8.5×10^4 cells/12-mm-diameter PET transparent insert with […] pores (12-well millicell culture insert; Millipore) and pre-coated with rat tail collagen type-1 (Sigma-Aldrich). The cells were grown submerged in the differentiation medium as described earlier by Zhen et al. (Am J Respir Cell Mol Biol 36: 244-253, 2007). […] Protein levels were determined using Bradford reagent (Biorad, Hercules, Calif.). […] The blots were then washed, exposed to HRP-conjugated secondary antibodies (1:5,000 dilution) for 1 h, and the antigen-antibody complex was detected by enhanced chemiluminescence (Amersham Pharmacia Biotech, Piscataway, N.J., USA). […]

Muc5AC = assay: Western blot of Muc5AC in IL-13-treated SAEC monolayer; format: cell-based, human; settings: IL-13 48 h, immunoblotting
Method: FIGS. 6A-6B. AR inhibition prevents IL-13-induced expression of Mucin and transcription factor SPDEF in airway epithelial cell monolayer. (A) The airway epithelial cell monolayer at ALI was serum starved without or with fidarestat and incubated with IL-13 for 18 h. Total RNA was isolated and subsequently RT-PCR was performed to assess the expression of Muc5AC and SPDEF. The bar diagrams show densitometric analysis of the corresponding blots (n=4). *p<0.001 vs Control; **p<0.001 vs IL-13; (B) The monolayer of ciliated airway cells at ALI was treated with AR inhibitor for 24 h and subsequently incubated with IL-13 for 24 or 48 h. At the end of incubation, cell lysate was prepared and subjected to western blotting using antibodies against Muc5AC, Muc5B, and SPDEF. The membranes were stripped and re-probed with antibodies against GAPDH to show the equal loading of protein. A representative blot is shown (n=4). *p<0.0001 vs Control; **p<0.001 vs IL-13. […] Protein levels were determined using Bradford reagent (Biorad, Hercules, Calif.). […] The blots were then washed, exposed to HRP-conjugated secondary antibodies (1:5,000 dilution) for 1 h, and the antigen-antibody complex was detected by enhanced chemiluminescence (Amersham Pharmacia Biotech, Piscataway, N.J., USA). […]

## NC(=O)[C@@H]1C[C@]2(NC(=O)NC2=O)c2cc(F)ccc2O1 [fidarestat, (2S,4S)-2-aminoformyl-6-fluoro-spiro[chroman-4,4′-imidazolidine]-2′,5′-dione]
JAK1; ALI monolayer, AR inhibitor 24 h prior to IL-13
  IL-13-induced phosphorylation of JAK1: decreased significantly
JAK1; AR inhibitor alone, no IL-13
  basal phosphorylation of JAK1: decreased
Muc5AC
  prevention of IL-13-induced increase in Muc5AC protein: ~75%
